Laboratory results taken from patent US20130138221A1, “METHODS AND COMPOSITIONS FOR IMPROVING IMPLANT OSSEOINTEGRATION” (Novartis AG, priority 2010, published 2013).

Columns and labels:
[1] = test system: bone resorption; details: zoledronic acid versus etidronate; reference 22; cited from earlier work
[2] = test system: estrogen-deprived (OVX) Wistar rats with titanium screw implant in the left tibia; assay: biomechanical removal torque testing of titanium screw implants in tibia of ovariectomized rats; type: in vivo, rat; details: 4 weeks post-implantation, implant coated with 8.5 μg zoledronate and/or Antibody 1 100 mg/kg iv. weekly, FIG. 2
Procedure: Titanium screw type implants (3 mm length, 1-1.5 mm diameter, self-cutting) were prepared by either (1) sand blasting and acid etching with no further coating, or (2) sand blasted and acid etched, then coated with 8.5 μg zoledronate. The coating was carried out by warming the implants and then dip coating with a zolendronate stearate salt and then allowing to dry at 80° C. as described for alendronic acid coating in reference 36. The […] and drying cycle was carried out 3 times. Skeletally mature virgin Wistar rats (6.5-month-old, Harlan laboratories, Switzerland) were estrogen-deprived by ovariectomy (OVX) under narcosis. Bone mineral density loss was confirmed in the proximal tibia metaphysis (4.5 mm distal from proximal end) three months post-ovariectomy (compared to intact controls) by peripheral quantitative computed tomography as described previously. The titanium screws were implanted approximately 3 mm distal to the proximal end of the left tibia under narcosis. Animals received a sand-blasted acid edged titanium implant with or without zoledronic acid coating which were prepared as above. Animals were distributed into the following groups [n=16/group and time point]: 1. OVX group receiving control implant 2. […] Intact group receiving control implant Animals were sacrificed 2 and 4 weeks post-implantation. […]

Which “potency relative to etidronate” value [1] does the source give for `O=P(O)(O)C(O)(Cn1ccnc1)P(=O)(O)O` [zoledronic acid, 1-hydroxy-2-(imidazol-1-yl)ethane-1,1-diphosphonic acid] here?
The value was 10,000 times.

B1: Antibody 1: anti-sclerostin antibody with VH domain SEQ ID NO: 1 and VL domain SEQ ID NO: 2, disclosed in WO09047356 (antibody, V domains shown)
VH: QVQLVESGGGLVQPGGSLRLSCAASGFTFRSHWLSWVRQAPGKGLEWVSNINYDGSSTYYADSVKGRFTISRDNSKNTLYLQMNSLRAEDTAVYYCARDTYLHFDYWGQGTLVTVSS
VL: DIALTQPASVSGSPGQSITISCTGTSSDVGDINDVSWYQQHPGKAPKLMIYDVNNRPSGVSNRFSGSKSGNTASLTISGLQAEDEADYYCQSYAGSYLSEVFGGGTKLTVLGQ
modifications: Antibody Vh; Antibody Vl
For B1, which “increase in removal torque versus OVX control implant (group 1)” value [2] is on record?
The value was 32%.
